Measurements reported in patent EP0678295B1, “Manufacturing process of phospholipideactive principle complexes useful for the liposome preparation” (Citernesi, Ugo, priority 1994, dated 1995).

Test: Measurement of entrapment efficiency (ultracentrifugation of liposomes, HPLC determination of Vitamin A in both phases)
Format: physicochemical
Details: liposomes from gelified phospholipid /Vitamin A complex (Example 1A) plus physiologic solution, 325 nm
Protocol: Measurement of entrapment efficiency.
A gelified phospholipid /Vitamin A complex was prepared according to the procedure described in Example 1A.
Liposomes were then obtained by adding a physiologic solution to the complex and subsequent stirring of the mixture.
The obtained liposomes have been subjected to ultracentrifugation in order to separate the liposome phase from the water phase. In both phases Vitamin A was determined as follows.
Phospholipid /vitamin A pellet resulting from the ultracentrifugation was dissolved in hexane, filtered under vacuum (0.2 .10^5 Pa) and determined by HPLC (high performance liquid chromatography) using two different HPLC columns: • 1) Column: Chromsep Nucleosil C18 100 mm x 3 ID Eluent: methanol Flow: 1 ml/min. Detecting wl: 325 nm • 2) Column: Pertsil 10 ODS Eluent: Methanol/water (90/10) Flow: 1ml/min. Detecting wl: 325 nm
The water phase coming from the ultracentrifugation was analyzed for its vitamin A content using the same HPLC procedure and columns.

Vitamin A detected in the liposome phase (pellet after ultracentrifugation dissolved in hexane): almost all | Vitamin A detected in the aqueous phase (water phase after ultracentrifugation): No Vitamin A was detected
Compound: CC(=O)OC/C=C(C)/C=C/C=C(C)/C=C/C1=C(C)CCCC1(C)C [Vitamin A, Vitamin A acetate]
